Test results published in ChEMBL document CHEMBL1138834, “Zn2+-chelating motif-tethered short-chain fatty acids as a novel class of histone deacetylase inhibitors” (J Med Chem, 2004).

Assays:
[1] = biological target: Histone deacetylase; assay: Inhibitory concentration against histone deacetylase (HDAC); Value ranges from 10-20 uM; type: protein assay
[2] = biological target: Histone deacetylase; assay: Inhibitory concentration against histone deacetylase (HDAC); Value ranges from 5-80 uM; type: protein assay
[3] = biological target: Histone deacetylase; assay: Inhibition of histone deacetylase (HDAC) activity in DU-145 nuclear extracts; type: protein assay, Homo sapiens
[4] = biological target: Histone deacetylase; assay: Inhibitory concentration against histone deacetylase (HDAC); Value ranges from 5-8 uM; type: protein assay
[5] = tested on: DU-145; assay: Effect of HTPB on DU-145 Cell viability; high degree of sensitivity, Range 0.5-1; type: functional, cell-based; details: Homo sapiens

| SMILES | IC50 [3] | also measured |
| --- | --- | --- |
| CCCC(CCC)C(=O)Nc1ccc(/C=C/C(=O)NO)cc1 |  | IC50 [1]: < 20 µM |
| CCCC(CCC)C(=O)Nc1ccc(CC(=O)NO)cc1 |  | IC50 [2]: < 80 µM |
| Nc1ccccc1NC(=O)c1ccc(CNC(=O)Cc2ccccc2)cc1 | 5.2 µM |  |
| O=C(CCc1ccc(NC(=O)CCCc2ccccc2)cc1)NO | 0.53 µM |  |
| CCCC(CCC)C(=O)Nc1ccc(C(=O)NO)cc1 |  | IC50 [4]: < 8 µM |
| CCCC(CCC)C(=O)NCc1ccc(C(=O)NO)cc1 |  | IC50 [4]: < 8 µM |
| CCCC(CCC)C(=O)Nc1ccc(C(=O)Nc2ccccc2N)cc1 |  | IC50 [1]: < 20 µM |
| CCCC(CCC)C(=O)NCc1ccc(C(=O)Nc2ccccc2N)cc1 |  | IC50 [4]: < 8 µM |
| CCCC(CCC)C(=O)Nc1ccc(/C=C/C(=O)Nc2ccccc2N)cc1 |  | IC50 [1]: < 20 µM |
| O=C(CCCc1ccccc1)Nc1ccc(C(=O)NO)cc1 | 0.044 µM | IC50 [5]: 1 µM |
| O=C(Cc1ccccc1)Nc1ccc(C(=O)NO)cc1 | 0.11 µM |  |
| Nc1ccccc1NC(=O)c1ccc(CNC(=O)CCCc2ccccc2)cc1 | 4.3 µM |  |
| CCCC(=O)NCc1ccc(C(=O)Nc2ccccc2N)cc1 | 6 µM |  |
| CCCC(CCC)C(=O)Nc1ccc(CCC(=O)Nc2ccccc2N)cc1 |  | IC50 [2]: < 80 µM |

Now from value to compound, other results behind:

| IC50 [3] | SMILES | also measured |
| --- | --- | --- |
| 80 µM | CCCC(CCC)C(=O)Nc1ccc(CC(=O)Nc2ccccc2N)cc1 |  |
| 1.6 µM | CCCC(=O)Nc1ccc(CCC(=O)NO)cc1 |  |
| 1.5 µM | CCCC(=O)Nc1ccc(C(=O)NO)cc1 |  |
| 5 µM | CCCC(CCC)C(=O)Nc1ccc(CCC(=O)NO)cc1 |  |
| 3.6 µM | CCCC(=O)NCc1ccc(C(=O)NO)cc1 |  |
| 2.5 µM | O=C(Cc1ccccc1)NCc1ccc(C(=O)NO)cc1 |  |
| 1.2 µM | O=C(CCCc1ccccc1)NCc1ccc(C(=O)NO)cc1 |  |
| 0.67 µM | O=C(CCc1ccc(NC(=O)Cc2ccccc2)cc1)NO |  |
